Assay results as given in patent US20180243273A1, “Composition for Intravesical Administration for Treating Bladder Pain” (priority 2017, published 2018).

Experiment: Storage of compositions with/without nitrogen-gassing and ascorbic acid, assay and impurities
Assay type: physicochemical
Details: phosphate buffer
Protocol: A possible beneficial effect of nitrogen-gassing during manufacturing and storage was assessed. Selected compositions were manufactured by dissolution of API via stirring for 24 h and stored after treatment with/without nitrogen at 25° C. or 6° C. for up to 28 days.
The manufactured batches consisted of phosphate buffer and vitamin E TPGS and were compared to compositions containing ascorbic acid 1%, additionally. API was used at 0.01 wt.-%, 0.02 wt.-% or 0.04 w.-%. The compositions were saturated with API, where 10 mg, 20 mg or 40 mg were dissolved in 100 g buffer containing 0.5 wt.-%, wt.-1% or 2 wt.-% vitamin E TPGS, respectively. The compositions were transferred into polystyrene bottles and stored at 25° C. or 6° C. A part of the compositions was treated with nitrogen during manufacturing and gassed with nitrogen prior to sealing (see FIG. 18). The compositions were tested for assay and purity of API after manufacturing, as well as after 7, 14 and 28 days.

[1] = vitamin E TPGS 0.5%, Asc. 1%, N2 +, API 0.01%, 6° C., t = 7 d
[2] = vitamin E TPGS 0.5%, Asc. 1%, N2 +, API 0.01%, 6° C., t = 14 d
[3] = vitamin E TPGS 0.5%, Asc. 1%, N2 +, API 0.01%, 6° C., t = 28 d
[4] = vitamin E TPGS 0.5%, Asc. 1%, N2 +, API 0.01%, 25° C., t = 7 d
[5] = vitamin E TPGS 0.5%, Asc. 1%, N2 +, API 0.01%, 25° C., t = 14 d
[6] = vitamin E TPGS 0.5%, Asc. 1%, N2 +, API 0.01%, 25° C., t = 28 d
[7] = vitamin E TPGS 0.5%, Asc. 1%, N2 +, API 0.01%, t = 0
[8] = vitamin E TPGS 0.5%, Asc. 1%, N2 −, API 0.01%, 6° C., t = 7 d
[9] = vitamin E TPGS 0.5%, Asc. 1%, N2 −, API 0.01%, 6° C., t = 14 d
[10] = vitamin E TPGS 0.5%, Asc. 1%, N2 −, API 0.01%, 6° C., t = 28 d
[11] = vitamin E TPGS 0.5%, Asc. 1%, N2 −, API 0.01%, 25° C., t = 7 d
[12] = vitamin E TPGS 0.5%, Asc. 1%, N2 −, API 0.01%, 25° C., t = 14 d
[13] = vitamin E TPGS 0.5%, Asc. 1%, N2 −, API 0.01%, 25° C., t = 28 d
[14] = vitamin E TPGS 0.5%, Asc. 1%, N2 −, API 0.01%, t = 0
[15] = vitamin E TPGS 0.5%, no Asc., N2 +, API 0.01%, 6° C., t = 28 d
[16] = vitamin E TPGS 0.5%, no Asc., N2 +, API 0.01%, 25° C., t = 7 d
[17] = vitamin E TPGS 0.5%, no Asc., N2 +, API 0.01%, 25° C., t = 14 d
[18] = vitamin E TPGS 0.5%, no Asc., N2 +, API 0.01%, t = 0
[19] = vitamin E TPGS 0.5%, no Asc., N2 −, API 0.01%, 6° C., t = 7 d
[20] = vitamin E TPGS 0.5%, no Asc., N2 −, API 0.01%, 6° C., t = 14 d
[21] = vitamin E TPGS 0.5%, no Asc., N2 −, API 0.01%, 6° C., t = 28 d
[22] = vitamin E TPGS 0.5%, no Asc., N2 −, API 0.01%, 25° C., t = 7 d
[23] = vitamin E TPGS 0.5%, no Asc., N2 −, API 0.01%, 25° C., t = 14 d
[24] = vitamin E TPGS 0.5%, no Asc., N2 −, API 0.01%, 25° C., t = 28 d
[25] = vitamin E TPGS 0.5%, no Asc., N2 −, API 0.01%, t = 0
[26] = vitamin E TPGS 1%, Asc. 1%, N2 +, API 0.02%, 6° C., t = 7 d
[27] = vitamin E TPGS 1%, Asc. 1%, N2 +, API 0.02%, 6° C., t = 14 d
[28] = vitamin E TPGS 1%, Asc. 1%, N2 +, API 0.02%, 6° C., t = 28 d
[29] = vitamin E TPGS 1%, Asc. 1%, N2 +, API 0.02%, 25° C., t = 7 d
[30] = vitamin E TPGS 1%, Asc. 1%, N2 +, API 0.02%, 25° C., t = 14 d
[31] = vitamin E TPGS 1%, Asc. 1%, N2 +, API 0.02%, 25° C., t = 28 d
[32] = vitamin E TPGS 1%, Asc. 1%, N2 +, API 0.02%, t = 0
[33] = vitamin E TPGS 1%, no Asc., N2 +, API 0.02%, 6° C., t = 7 d
[34] = vitamin E TPGS 1%, no Asc., N2 +, API 0.02%, 6° C., t = 14 d
[35] = vitamin E TPGS 1%, no Asc., N2 +, API 0.02%, 6° C., t = 28 d
[36] = vitamin E TPGS 1%, no Asc., N2 +, API 0.02%, 25° C., t = 7 d
[37] = vitamin E TPGS 1%, no Asc., N2 +, API 0.02%, 25° C., t = 14 d

## CN(C)[C@]1(c2cccc(F)c2)CC[C@]2(CC1)c1[nH]c3ccccc3c1CCN2C(=O)/C=C/c1ccccc1 [API, cis-(E)-4-(3-fluorophenyl)-2′,3′,4′,9′-tetrahydro-N,N-dimethyl-2′-(1-oxo-3-phenyl-2-propenyl)-spiro[cyclohexane-1,1′[1H]-pyrido[3,4-b]indol]-4-amine]
[1]
  Assay: 65.65 µg/mL
  Impurities: 0.65 % (a/a)
[2]
  Assay: 65.65 µg/mL
  Impurities: 29.21 % (a/a)
[3]
  Assay: 65.82 µg/mL
  Impurities: 0.70 % (a/a)
[4]
  Assay: 63.63 µg/mL
  Impurities: 1.00 % (a/a)
[5]
  Assay: 61.53 µg/mL
  Impurities: 1.74 % (a/a)
[6]
  Assay: 63.95 µg/mL
  Impurities: 1.82 % (a/a)
[7]
  Assay: 66.61 µg/mL
  Impurities: 0.58 % (a/a)
[8]
  Assay: 66.21 µg/mL
  Impurities: 0.70 % (a/a)
[9]
  Assay: 66.54 µg/mL
  Impurities: 0.83 % (a/a)
[10]
  Assay: 66.15 µg/mL
  Impurities: 0.70 % (a/a)
[11]
  Assay: 65.66 µg/mL
  Impurities: 0.53 % (a/a)
[12]
  Assay: 65.27 µg/mL
  Impurities: 1.09 % (a/a)
[13]
  Assay: 61.46 µg/mL
  Impurities: 1.36 % (a/a)
[14]
  Assay: 66.81 µg/mL
  Impurities: 0.66 % (a/a)
[15]
  Assay: 49.80 µg/mL
  Impurities: 0.54 % (a/a)
[16]
  Assay: 49.76 µg/mL
  Impurities: 0.36 % (a/a)
[17]
  Assay: 49.65 µg/mL
  Impurities: 1.19 % (a/a)
[18]
  Assay: 49.49 µg/mL
  Impurities: 0.71 % (a/a)
[19]
  Assay: 50.43 µg/mL
  Impurities: 0.63 % (a/a)
[20]
  Assay: 50.71 µg/mL
  Impurities: 0.94 % (a/a)
[21]
  Assay: 50.27 µg/mL
  Impurities: 0.52 % (a/a)
[22]
  Assay: 50.56 µg/mL
  Impurities: 0.45 % (a/a)
[23]
  Assay: 50.23 µg/mL
  Impurities: 1.13 % (a/a)
[24]
  Assay: 50.36 µg/mL
  Impurities: 1.06 % (a/a)
[25]
  Assay: 50.22 µg/mL
  Impurities: 0.68 % (a/a)
[26]
  Assay: 109.93 µg/mL
  Impurities: 0.73 % (a/a)
[27]
  Assay: 110.67 µg/mL
  Impurities: 0.90 % (a/a)
[28]
  Assay: 110.25 µg/mL
  Impurities: 0.91 % (a/a)
[29]
  Assay: 107.03 µg/mL
  Impurities: 1.04 % (a/a)
[30]
  Assay: 106.77 µg/mL
  Impurities: 1.27 % (a/a)
[31]
  Assay: 93.34 µg/mL
  Impurities: 1.79 % (a/a)
[32]
  Assay: 110.99 µg/mL
  Impurities: 0.62 % (a/a)
[33]
  Assay: 93.47 µg/mL
  Impurities: 0.64 % (a/a)
[34]
  Assay: 93.72 µg/mL
  Impurities: 0.75 % (a/a)
[35]
  Assay: 93.93 µg/mL
  Impurities: 0.58 % (a/a)
[36]
  Assay: 93.61 µg/mL
  Impurities: 0.69 % (a/a)
[37]
  Assay: 93.28 µg/mL
  Impurities: 0.86 % (a/a)
